Data as given in EP3698776A1, “TAMPER-RESISTANT DOSAGE FORM WITH IMMEDIATE RELEASE AND RESISTANCE AGAINST SOLVENT EXTRACTION” (Grünenthal GmbH, priority 2019, dated 2020).

Legend:
[1] = system: non-dependent recreational opioid users; experiment: Human abuse liability study, intranasal: pharmacodynamics (VAS Drug Liking, pupillometry); type: in vivo; details: 30 mg oxycodone HCl, Completer Set
Description: The formulation according to Inventive Example 1 was tested in a human abuse liability study and compared to a commercial product and to placebo (placebo API and placebo TRF formulation).
(§1) A single-site, randomized, double-blind, double-dummy, active-comparator, placebo-controlled, 3-way crossover trial in adult non-dependent recreational opioid users was conducted to compare the intranasal abuse potential of the tablet formulation according to Inventive Example 1 and standard formulations of oxycodone.
(§2) The primary objective of the study was to compare the intranasal abuse potential of a manipulated formulation according to Inventive Example 1 and oxycodone active pharmaceutical ingredient (API) powder (representing manipulated oxycodone IR standard formulation). Primary measure: Peak effect (Emax) for Drug Liking "at this moment" on visual analog scale (VAS). The secondary objectives were to compare the pharmacokinetics (PK), further pharmacodynamic (PD) parameters, and assess safety and tolerability.
The trial design is illustrated in Figure 3 (Single-site, randomized, double-blind, double-dummy, active-comparator, placebo-controlled, 3-way crossover trial in male and female non-dependent recreational opioid users with recent intranasal use experience).
Subjects received single treatments of Test, Comparator, and Placebo in a randomized, double-blind, double-dummy, 3-way crossover. […]

[2] = Human abuse liability study, intranasal: pharmacokinetics; type: in vivo; details: inhaled or intranasal, intranasal (insufflated), plasma, PK Set, read-out: median tmax
Description: as §1, §2
Subjects received single treatments of Test, Comparator, and Placebo in a randomized, double-blind, double-dummy, 3-way crossover. Each single treatment consisted of two investigational medicinal products (IMPs), to be insufflated (snorted) in quick succession in fixed sequence:
Pharmacokinetics results are presented in Figure 7 relative to the insufflated amount of oxycodone, mean dose-normalized plasma-concentration-time profiles of Oxycodone - PK Set: […]

**Q.** Which “Peak effect (Emax) of Drug Liking "at this moment", Least Square Mean” value [1] does the source give for COc1ccc2c3c1O[C@H]1C(=O)CC[C@@]4(O)[C@@H](C2)N(C)CC[C@]314.Cl [Comparator (C), oxycodone HCl] here?
**A.** 75.0

**Q.** What about the Tmax [2] of the same compound?
**A.** 1.75 h
